Experimental data published in ChEMBL document CHEMBL1201862, “PubChem BioAssay data set” (2004).
Blank lines part the entries; values can stand above or below the compound they belong to. The source made the active and inactive calls.

What was measured:
[1] = biological target: T1, Methionyl-tRNA synthetase, putative (Trypanosoma brucei brucei, UniProt Q38C91); type: functional, Trypanosoma brucei brucei strain 927/4 GUTat10.1
T1 sequence (Q38C91 whole entry): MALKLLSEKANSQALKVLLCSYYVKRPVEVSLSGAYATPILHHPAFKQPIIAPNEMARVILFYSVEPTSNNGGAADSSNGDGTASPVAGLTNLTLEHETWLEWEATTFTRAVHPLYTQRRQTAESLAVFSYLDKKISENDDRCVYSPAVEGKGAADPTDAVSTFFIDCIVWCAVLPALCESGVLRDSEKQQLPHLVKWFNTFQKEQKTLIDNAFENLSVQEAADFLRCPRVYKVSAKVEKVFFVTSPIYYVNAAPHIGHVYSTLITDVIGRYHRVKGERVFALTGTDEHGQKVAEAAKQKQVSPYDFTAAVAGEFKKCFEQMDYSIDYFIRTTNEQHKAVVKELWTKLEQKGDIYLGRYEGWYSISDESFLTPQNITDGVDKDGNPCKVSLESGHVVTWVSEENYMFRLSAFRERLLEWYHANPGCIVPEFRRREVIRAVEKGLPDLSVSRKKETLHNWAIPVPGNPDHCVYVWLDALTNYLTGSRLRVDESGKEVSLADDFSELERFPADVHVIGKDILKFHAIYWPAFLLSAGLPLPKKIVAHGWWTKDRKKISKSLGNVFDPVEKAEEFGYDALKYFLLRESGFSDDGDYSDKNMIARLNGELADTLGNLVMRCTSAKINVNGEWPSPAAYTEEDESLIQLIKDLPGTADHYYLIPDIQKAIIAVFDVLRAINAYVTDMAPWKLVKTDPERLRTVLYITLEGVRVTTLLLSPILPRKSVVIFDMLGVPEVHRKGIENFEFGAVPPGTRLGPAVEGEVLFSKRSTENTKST

[2] = Counterscreen for inhibitors of Trypanosoma brucei methionyl tRNA synthetase (MetRS): Luminescence-based cell-based high throughput dose response assay to identify compounds that are cytotoxic to Jurkat human T lymphocyte cells.; type: functional
[3] = biological target: T1, Methionyl-tRNA synthetase, putative; type: functional, Trypanosoma brucei brucei strain 927/4 GUTat10.1; remark: listed apart in the source
[4] = biological target: T2, Sentrin-specific protease 8 (Homo sapiens, UniProt Q96LD8); type: functional
T2 sequence (Q96LD8 whole entry): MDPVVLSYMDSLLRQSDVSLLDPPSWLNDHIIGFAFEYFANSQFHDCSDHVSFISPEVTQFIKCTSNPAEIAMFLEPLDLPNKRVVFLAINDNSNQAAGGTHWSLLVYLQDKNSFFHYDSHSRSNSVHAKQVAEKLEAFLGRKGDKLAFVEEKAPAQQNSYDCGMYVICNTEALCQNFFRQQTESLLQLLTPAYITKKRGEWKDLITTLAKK

[5] = biological target: T2, Sentrin-specific protease 8; type: functional; remark: listed apart in the source
[6] = biological target: Cytochrome P450 3A4 (Homo sapiens, UniProt P08684);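 further: CYP3A4 tested as one member of a cytochrome P450 panel screen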
Chain of Cytochrome P450 3A4 (P08684 whole entry): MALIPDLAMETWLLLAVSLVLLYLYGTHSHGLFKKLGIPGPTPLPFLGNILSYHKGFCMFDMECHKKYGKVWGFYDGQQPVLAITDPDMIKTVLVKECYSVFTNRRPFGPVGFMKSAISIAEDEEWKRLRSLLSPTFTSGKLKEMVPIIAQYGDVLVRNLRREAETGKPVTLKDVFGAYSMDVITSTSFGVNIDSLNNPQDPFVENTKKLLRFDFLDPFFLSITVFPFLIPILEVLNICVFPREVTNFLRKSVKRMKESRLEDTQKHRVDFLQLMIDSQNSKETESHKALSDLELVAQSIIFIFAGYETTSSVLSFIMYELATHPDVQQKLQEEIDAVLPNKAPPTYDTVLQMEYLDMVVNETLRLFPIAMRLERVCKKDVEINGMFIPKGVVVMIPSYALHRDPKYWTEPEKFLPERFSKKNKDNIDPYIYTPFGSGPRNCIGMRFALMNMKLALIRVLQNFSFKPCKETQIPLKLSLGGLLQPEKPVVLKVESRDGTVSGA

[7] = biological target: Cytochrome P450 2D6 (Homo sapiens, UniProt P10635);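 further: CYP2D6 member of a cytochrome P450 panel assay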
[8] = biological target: DNA repair and recombination protein RAD54-like (Homo sapiens, UniProt Q92698); test: inhibitors of human RAD54 branch migration, confirmation, biochemical, fluorescence, cherry-picked samples, dose series (AID 651657); type: functional
Chain of DNA repair and recombination protein RAD54-like (Q92698 whole entry): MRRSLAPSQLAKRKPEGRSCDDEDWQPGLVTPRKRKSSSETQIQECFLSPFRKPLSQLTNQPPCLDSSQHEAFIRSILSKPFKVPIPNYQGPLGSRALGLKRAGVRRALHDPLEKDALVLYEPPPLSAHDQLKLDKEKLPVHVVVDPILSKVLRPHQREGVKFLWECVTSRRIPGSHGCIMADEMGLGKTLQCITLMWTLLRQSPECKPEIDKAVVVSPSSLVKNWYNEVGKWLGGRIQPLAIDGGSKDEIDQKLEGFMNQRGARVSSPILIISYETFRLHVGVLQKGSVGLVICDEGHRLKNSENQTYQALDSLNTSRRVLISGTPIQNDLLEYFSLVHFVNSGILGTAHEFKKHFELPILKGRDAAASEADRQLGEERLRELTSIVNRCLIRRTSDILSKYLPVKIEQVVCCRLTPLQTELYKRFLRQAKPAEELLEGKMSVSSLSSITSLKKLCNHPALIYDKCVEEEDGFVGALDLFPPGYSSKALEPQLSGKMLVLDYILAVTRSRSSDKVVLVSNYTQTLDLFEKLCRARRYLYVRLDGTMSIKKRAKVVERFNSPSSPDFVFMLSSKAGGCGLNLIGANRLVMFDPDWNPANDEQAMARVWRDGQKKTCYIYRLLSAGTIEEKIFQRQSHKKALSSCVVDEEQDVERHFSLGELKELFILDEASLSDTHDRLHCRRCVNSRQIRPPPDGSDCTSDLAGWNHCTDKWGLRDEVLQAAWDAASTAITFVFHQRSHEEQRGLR

[9] = biological target: Steroidogenic factor 1 (Homo sapiens, UniProt Q13285); test: Counterscreen for inverse agonists of the liver receptor homolog-1 (LRH-1; NR5A2): Luminescence-based cell-based high throughput dose response assay to identify inverse agonists of the Steroidogenic Factor 1 Nuclear Receptor (SF1; NR5A1).; type: functional
Chain of Steroidogenic factor 1 (Q13285 whole entry): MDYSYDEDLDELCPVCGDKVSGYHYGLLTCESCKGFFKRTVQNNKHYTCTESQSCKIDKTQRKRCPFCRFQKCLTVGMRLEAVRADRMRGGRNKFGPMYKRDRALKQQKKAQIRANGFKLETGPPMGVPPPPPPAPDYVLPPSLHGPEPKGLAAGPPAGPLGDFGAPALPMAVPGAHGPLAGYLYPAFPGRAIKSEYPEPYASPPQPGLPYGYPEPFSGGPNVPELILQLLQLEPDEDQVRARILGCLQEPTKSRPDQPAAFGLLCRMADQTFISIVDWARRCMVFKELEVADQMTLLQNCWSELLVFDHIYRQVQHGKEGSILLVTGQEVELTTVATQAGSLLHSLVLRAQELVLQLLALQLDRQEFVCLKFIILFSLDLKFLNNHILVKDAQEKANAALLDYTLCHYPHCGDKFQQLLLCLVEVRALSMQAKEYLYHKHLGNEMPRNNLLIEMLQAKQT

[10] = biological target: T3, Orexin receptor type 2 (Homo sapiens, UniProt O43614); test: Counterscreen assay for antagonists of the orexin 1 receptor (OX1R; HCRTR1): Fluorescence-based cell-based dose response assay for antagonists of the orexin 2 receptor (OX2R; HCRTR2), run by assay provider.; type: functional
T3 sequence (O43614 whole entry): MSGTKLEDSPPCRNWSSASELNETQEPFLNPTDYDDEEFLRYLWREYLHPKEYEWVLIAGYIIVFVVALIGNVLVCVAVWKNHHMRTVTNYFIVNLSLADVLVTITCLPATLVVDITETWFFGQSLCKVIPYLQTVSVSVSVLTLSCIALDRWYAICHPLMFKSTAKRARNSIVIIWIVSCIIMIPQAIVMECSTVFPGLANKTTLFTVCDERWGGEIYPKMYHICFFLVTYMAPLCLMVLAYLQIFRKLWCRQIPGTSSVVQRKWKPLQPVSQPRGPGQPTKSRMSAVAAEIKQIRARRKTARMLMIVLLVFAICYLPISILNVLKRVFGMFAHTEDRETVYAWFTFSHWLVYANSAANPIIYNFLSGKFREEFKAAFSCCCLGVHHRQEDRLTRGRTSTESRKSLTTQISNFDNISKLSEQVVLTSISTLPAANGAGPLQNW

[11] = biological target: T4, Orexin/Hypocretin receptor type 1 (Homo sapiens, UniProt O43613); test: (§1) Fluorescence-based cell-based high throughput dose response assay for antagonists of the orexin 1 receptor (OX1R; HCRTR1). [Related pubchem assays (depositor defined):AID434989, AID435008, AID463079, AID485270, AID492963, AID492964, AID492965, AID493232, AID504717, AID504718]; type: functional
T4 sequence (O43613 whole entry): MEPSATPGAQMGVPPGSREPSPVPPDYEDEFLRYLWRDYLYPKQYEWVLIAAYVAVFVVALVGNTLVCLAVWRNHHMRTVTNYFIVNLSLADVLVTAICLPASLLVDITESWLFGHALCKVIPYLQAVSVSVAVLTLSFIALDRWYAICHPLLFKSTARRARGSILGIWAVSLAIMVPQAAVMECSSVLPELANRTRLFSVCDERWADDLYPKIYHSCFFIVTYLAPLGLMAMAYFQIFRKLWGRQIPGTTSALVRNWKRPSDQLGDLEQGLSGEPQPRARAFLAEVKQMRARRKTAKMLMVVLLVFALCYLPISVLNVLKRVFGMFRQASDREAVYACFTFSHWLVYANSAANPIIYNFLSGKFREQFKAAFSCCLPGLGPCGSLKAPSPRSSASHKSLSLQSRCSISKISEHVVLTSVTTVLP

[12] = biological target: T4, Orexin/Hypocretin receptor type 1; test: as §1, with “Homogeneous Time Resolved Fluorescence (HTRF)-based” for “Fluorescence-based”; type: functional
[13] = (§2) Counterscreen for antagonists of the orexin 1 receptor (OX1R; HCRTR1): Fluorescence-based cell-based high throughput dose response assay to identify antagonists of the parental CHO cell line. [Related pubchem assays (depositor defined):AID434989, AID435008, AID463079, AID485270, AID492963, AID492964, AID492965, AID493232, AID504699, AID504701]; type: functional
[14] = HEp-2 cell cytotoxicity, dose response, cytotoxicity control for RSV inhibitor project, HTS (AID 2410); type: functional; settings: human respiratory syncytial virus
[15] = biological target: Eukaryotic translation initiation factor 4E (Mus musculus, UniProt P63073); test: eIF4E–eIF4G protein interaction inhibitors, dose response, biochemical, TR-FRET (AID 855); type: functional;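 further: potency for disrupting eIF4E binding to eIF4GI seen as loss of FRET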
Chain of Eukaryotic translation initiation factor 4E (P63073 whole entry): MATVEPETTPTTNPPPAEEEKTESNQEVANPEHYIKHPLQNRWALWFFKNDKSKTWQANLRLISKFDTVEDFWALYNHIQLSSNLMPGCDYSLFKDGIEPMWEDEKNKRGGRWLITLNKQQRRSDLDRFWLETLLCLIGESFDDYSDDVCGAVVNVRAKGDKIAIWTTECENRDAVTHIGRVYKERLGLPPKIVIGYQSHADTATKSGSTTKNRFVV

[16] = test system: CHO-K1; test: as §2, with “Homogeneous time resolved fluorescence (HTRF)-based” for “Fluorescence-based”, “cell-based” for “cell-based high throughput”, “CHO-K1” for “CHO”; type: functional; settings: Cricetulus griseus;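 further: potency for inhibition of ATP-stimulated IP1 production as antagonists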
[17] = biological target: T3, Orexin receptor type 2; test: Counterscreen assay for antagonists of the orexin 1 receptor (OX1R; HCRTR1): Homogeneous Time Resolved Fluorescence (HTRF)-based cell-based dose response assay for antagonists of the orexin 2 receptor (OX2R; HCRTR2), run by assay provider.; type: functional
[18] = biological target: Mitochondrial peptide methionine sulfoxide reductase (Bos taurus, UniProt P54149); type: functional;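 further: absorbance read-out, biochemical high-throughput dose-response screen for MsrA inhibitors, confirmatory; recombinant bovine MsrA coupled to E. coli TrxB with NADPH and selenocystamine; potency is for inhibitors of MsrA activity on DMSO substrate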
Chain of Mitochondrial peptide methionine sulfoxide reductase (P54149 whole entry): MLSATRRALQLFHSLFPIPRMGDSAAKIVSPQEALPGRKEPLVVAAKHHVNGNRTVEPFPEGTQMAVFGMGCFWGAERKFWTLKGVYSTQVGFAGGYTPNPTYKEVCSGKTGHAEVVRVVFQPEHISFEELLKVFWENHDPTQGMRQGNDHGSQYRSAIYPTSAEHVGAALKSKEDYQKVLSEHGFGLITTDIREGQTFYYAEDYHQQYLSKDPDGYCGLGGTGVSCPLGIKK

[19] = biological target: Ras and Rab interactor 1/Tyrosine-protein kinase ABL1 (Homo sapiens, UniProt P00519+Q13671); type: functional;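 further: biochemical TR-FRET dose-response test measuring inhibition of binding between Rin1 and Abl proteins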
Chain of Ras and Rab interactor 1/Tyrosine-protein kinase ABL1 (P00519 whole entry): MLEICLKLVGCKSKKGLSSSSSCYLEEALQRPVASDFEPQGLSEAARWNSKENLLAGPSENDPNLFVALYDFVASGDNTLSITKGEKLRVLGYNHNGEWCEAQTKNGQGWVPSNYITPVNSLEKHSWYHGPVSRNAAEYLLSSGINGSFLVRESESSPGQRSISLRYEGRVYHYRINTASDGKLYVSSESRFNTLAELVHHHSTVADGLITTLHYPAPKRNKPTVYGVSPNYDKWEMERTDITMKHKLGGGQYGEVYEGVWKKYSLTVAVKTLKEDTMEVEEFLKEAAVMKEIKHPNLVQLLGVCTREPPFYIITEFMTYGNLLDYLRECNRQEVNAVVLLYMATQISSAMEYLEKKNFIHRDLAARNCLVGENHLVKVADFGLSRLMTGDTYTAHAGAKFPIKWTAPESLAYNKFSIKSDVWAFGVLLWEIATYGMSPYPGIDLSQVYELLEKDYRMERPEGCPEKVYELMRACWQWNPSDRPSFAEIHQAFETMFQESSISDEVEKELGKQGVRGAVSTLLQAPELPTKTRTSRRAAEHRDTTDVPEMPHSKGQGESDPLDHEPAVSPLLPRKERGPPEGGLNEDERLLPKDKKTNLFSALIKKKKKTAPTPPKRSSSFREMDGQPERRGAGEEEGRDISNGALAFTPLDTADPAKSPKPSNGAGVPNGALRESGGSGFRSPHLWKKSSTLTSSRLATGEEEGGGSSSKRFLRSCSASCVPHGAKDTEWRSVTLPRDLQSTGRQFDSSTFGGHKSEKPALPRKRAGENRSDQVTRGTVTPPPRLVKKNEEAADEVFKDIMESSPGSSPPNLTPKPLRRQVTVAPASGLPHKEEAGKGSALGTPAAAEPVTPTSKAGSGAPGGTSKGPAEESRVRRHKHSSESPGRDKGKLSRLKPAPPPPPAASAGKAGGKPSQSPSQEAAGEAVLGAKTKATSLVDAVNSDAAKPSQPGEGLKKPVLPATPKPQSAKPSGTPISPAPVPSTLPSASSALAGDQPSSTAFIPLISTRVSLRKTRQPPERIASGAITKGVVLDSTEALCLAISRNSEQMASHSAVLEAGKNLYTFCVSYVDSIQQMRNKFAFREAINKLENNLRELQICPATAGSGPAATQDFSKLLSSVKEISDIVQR
Chain of Ras and Rab interactor 1/Tyrosine-protein kinase ABL1 (Q13671 whole entry): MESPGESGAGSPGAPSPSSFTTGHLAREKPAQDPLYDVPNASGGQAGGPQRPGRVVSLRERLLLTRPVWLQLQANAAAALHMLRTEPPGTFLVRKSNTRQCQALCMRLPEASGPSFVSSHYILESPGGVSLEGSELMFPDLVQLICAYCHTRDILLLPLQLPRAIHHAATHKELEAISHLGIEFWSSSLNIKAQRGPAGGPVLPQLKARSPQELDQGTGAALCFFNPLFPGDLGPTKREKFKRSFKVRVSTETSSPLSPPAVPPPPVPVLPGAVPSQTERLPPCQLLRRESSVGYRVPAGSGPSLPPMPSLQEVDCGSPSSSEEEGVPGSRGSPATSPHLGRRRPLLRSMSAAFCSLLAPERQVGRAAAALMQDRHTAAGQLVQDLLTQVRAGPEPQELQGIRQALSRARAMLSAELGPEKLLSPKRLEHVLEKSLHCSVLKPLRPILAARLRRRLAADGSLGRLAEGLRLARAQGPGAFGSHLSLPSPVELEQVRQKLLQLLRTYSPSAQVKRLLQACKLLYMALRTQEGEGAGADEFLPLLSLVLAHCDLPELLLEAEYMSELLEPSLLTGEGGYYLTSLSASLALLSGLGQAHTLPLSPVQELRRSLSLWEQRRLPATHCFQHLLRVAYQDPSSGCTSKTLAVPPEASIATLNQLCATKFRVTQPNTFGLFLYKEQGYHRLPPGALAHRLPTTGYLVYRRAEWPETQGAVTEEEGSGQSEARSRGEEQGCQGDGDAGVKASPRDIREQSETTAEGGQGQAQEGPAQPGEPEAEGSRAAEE

[20] = test system: Vero; test: host cell cytotoxicity of antiviral hits, dose response, cytotoxicity control for West Nile virus antiviral project, secondary assay (AID 1650); type: functional; settings: Chlorocebus sabaeus
[21] = biological target: DNA (cytosine-5)-methyltransferase 1 (Homo sapiens, UniProt P26358); test: DNMT1 methyltransferase inhibitors, confirmation, biochemical, fluorescent molecular beacon (AID 602386); type: functional
[22] = biological target: Dual specificity protein phosphatase 3 (Homo sapiens, UniProt P51452); test: VHR phosphatase inhibition, dose response, selectivity assay for STEP inhibitor project, biochemical (AID 602374); type: functional; settings: read-out: IC50_Mean
Chain of Dual specificity protein phosphatase 3 (P51452 whole entry): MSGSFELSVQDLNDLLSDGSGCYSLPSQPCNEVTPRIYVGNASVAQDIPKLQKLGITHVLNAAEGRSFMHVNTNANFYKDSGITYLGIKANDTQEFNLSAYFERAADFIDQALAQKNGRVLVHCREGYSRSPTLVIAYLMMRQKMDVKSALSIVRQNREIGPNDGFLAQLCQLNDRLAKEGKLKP

[23] = biological target: Tyrosine-protein phosphatase non-receptor type 11 (Homo sapiens, UniProt Q06124); test: SHP2 phosphatase inhibition, dose response, selectivity assay for STEP inhibitor project, biochemical (AID 602367); type: functional; settings: read-out: IC50_Mean
[24] = biological target: Tyrosine-protein phosphatase non-receptor type 5 (Homo sapiens, UniProt P54829); test: STEP phosphatase inhibitors, confirmation, biochemical, fluorescence intensity, uHTS hits (AID 602372); type: functional; settings: read-out: IC50_Mean
Chain of Tyrosine-protein phosphatase non-receptor type 5 (P54829 whole entry): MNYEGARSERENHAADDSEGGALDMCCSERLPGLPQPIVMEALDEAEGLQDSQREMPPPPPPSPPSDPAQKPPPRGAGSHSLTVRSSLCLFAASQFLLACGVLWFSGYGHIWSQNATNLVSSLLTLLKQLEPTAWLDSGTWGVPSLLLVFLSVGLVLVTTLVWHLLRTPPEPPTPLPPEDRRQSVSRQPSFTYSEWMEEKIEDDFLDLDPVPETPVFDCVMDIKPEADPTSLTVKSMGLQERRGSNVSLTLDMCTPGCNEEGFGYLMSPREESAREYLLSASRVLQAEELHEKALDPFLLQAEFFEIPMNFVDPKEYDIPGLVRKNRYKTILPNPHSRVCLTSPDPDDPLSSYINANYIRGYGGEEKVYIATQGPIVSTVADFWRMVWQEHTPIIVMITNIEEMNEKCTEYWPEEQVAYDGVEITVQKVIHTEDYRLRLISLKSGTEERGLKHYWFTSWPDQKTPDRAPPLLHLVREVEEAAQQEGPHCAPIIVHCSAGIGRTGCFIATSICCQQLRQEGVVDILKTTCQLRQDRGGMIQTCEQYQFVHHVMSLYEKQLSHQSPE

[25] = biological target: T5, Low molecular weight phosphotyrosine protein phosphatase (Homo sapiens, UniProt P24666); type: functional; settings: read-out: IC50_Mean;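 further: Dose-response confirmation assay measuring inhibition of LMPTP enzyme activity by fluorescence intensity read-out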
T5 sequence (P24666 whole entry): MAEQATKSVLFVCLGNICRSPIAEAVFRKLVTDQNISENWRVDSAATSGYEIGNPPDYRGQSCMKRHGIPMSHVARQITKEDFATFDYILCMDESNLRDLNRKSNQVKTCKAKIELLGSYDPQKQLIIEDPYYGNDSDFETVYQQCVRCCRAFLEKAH

[26] = cells; type: functional, cell-based
[27] = cells; type: functional, cell-based; remark: listed apart in the source
[28] = biological target: T6, Carboxy-terminal domain RNA polymerase II polypeptide A small phosphatase 1 (Homo sapiens, UniProt Q9GZU7); test: inhibitors of CTDSP1, concentration-response testing, biochemical assay, absorbance-based, actives from ultra-high-throughput screening (AID 540297); type: functional
T6 sequence (Q9GZU7 whole entry): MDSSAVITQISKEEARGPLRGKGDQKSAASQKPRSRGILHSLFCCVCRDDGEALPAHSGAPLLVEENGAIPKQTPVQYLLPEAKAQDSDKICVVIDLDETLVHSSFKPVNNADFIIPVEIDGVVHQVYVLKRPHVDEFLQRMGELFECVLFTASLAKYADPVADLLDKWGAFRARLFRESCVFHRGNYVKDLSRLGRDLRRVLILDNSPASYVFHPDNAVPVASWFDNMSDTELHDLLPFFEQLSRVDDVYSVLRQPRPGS

[29] = biological target: T7, DNA repair protein RAD52 homolog (Homo sapiens, UniProt P43351); type: functional, biochemical
T7 sequence (P43351 whole entry): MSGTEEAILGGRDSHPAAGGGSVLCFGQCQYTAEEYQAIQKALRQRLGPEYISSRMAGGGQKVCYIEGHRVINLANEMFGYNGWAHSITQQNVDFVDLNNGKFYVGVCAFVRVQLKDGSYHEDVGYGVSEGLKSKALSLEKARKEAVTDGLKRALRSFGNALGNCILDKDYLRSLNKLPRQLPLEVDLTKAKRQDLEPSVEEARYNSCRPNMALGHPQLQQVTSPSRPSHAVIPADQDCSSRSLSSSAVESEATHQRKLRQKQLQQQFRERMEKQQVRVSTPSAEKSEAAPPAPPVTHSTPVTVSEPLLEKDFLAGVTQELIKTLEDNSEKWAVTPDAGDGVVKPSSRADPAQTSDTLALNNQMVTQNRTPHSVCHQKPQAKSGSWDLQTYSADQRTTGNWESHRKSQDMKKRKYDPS

SMILES: O=C(CCCSc1ccc(Cl)cc1)Nc1ccccc1O
IC50 [1]: 24.1 µM (inactive) | IC50 [2]: 158 nM (active) | IC50 [3]: 24.8 µM (inactive)

SMILES: COC(=O)CCCC1=CC2=CC(=O)C(C)(OC(=O)c3cccs3)C(=O)C2=CN1CCc1ccccn1 (stereo unspecified)
IC50 [4]: 20.9 µM (active) | IC50 [5]: 9.96 µM (active)

SMILES: COc1cccc(N2CCN(CC(=O)Nc3ccc(-n4cnnn4)cc3)CC2)c1
IC50 [9]: 6.28 µM (active)

SMILES: Cc1cnc(NC(=O)c2ccc(-c3nc4ccccc4s3)o2)s1
IC50 [10]: > 88.8 µM (inactive) | IC50 [11]: 1.97 µM (active) | IC50 [12]: 333 nM (active) | IC50 [13]: > 49.8 µM (inactive) | CC50 [14]: 30.7 µM (active) | IC50 [15]: > 64 µM (inactive) | IC50 [16]: 62 µM (inactive) | IC50 [17]: > 50 µM (inactive)

SMILES: COC(=O)CCCC1=CC2=C(c3ccccc3)C(=O)C(C)(OC(=O)C3CCCC3)C(=O)C2=CN1C1CCCCC1 (stereo unspecified)
IC50 [4]: 13 µM (active) | IC50 [5]: 6.2 µM (active)

SMILES: O=C(CSc1nc(O)c2ccccc2n1)Nc1nc(-c2ccc(Br)cc2)cs1
CC50 [20]: 35.9 µM (active) | IC50 [21]: 5.12 µM (active)

SMILES: Sc1ncnc2c1ncn2-c1ccc(Cl)cc1
IC50 [22]: 1.48 µM (active) | IC50 [23]: 6.29 µM (active) | IC50 [24]: 29.4 µM (inactive)

SMILES: COc1ccc2ncccc2c1Cc1c(OC)ccc2ncccc12
IC50 [25]: 9.3 µM (active)

SMILES: O=C(N/N=C/c1ccc(F)cc1)c1cc(-c2ccc3c(c2)OCO3)[nH]n1
EC50 [26]: > 350 µM (not active) | IC50 [22]: 6.61 µM (active) | EC50 [27]: > 350 µM (not active) | IC50 [23]: 5.14 µM (active) | IC50 [28]: 9.8 µM (active) | IC50 [24]: > 80 µM (inactive)

SMILES: CN(C)CCNC(=O)c1cccc(-c2cnc3c(NC=O)cc(-c4ccc(C(=O)N5CCOCC5)cc4)cn23)c1
AC50 [29]: 9.04 µM (active) | AC50 [8]: 47.8 µM (active)

The remaining lines, values ahead:

AC50 [6]: 20 µM (inconclusive) | AC50 [7]: 14.1 µM (inconclusive) | AC50 [8]: 19.9 µM (active)
SMILES: CCN1CCN(c2nn3c(=O)c4ccccc4nc3c3ccccc23)CC1

IC50 [18]: 85.5 µM (inactive)
SMILES: COc1ccc2cc(-c3n[nH]cc3CN3CCCC3c3nonc3C)ccc2c1 (stereo unspecified)

IC50 [19]: 8.07 µM (active)
SMILES: COc1ccc(S(=O)(=O)N2CCCCCC2)cc1C(=O)Nc1ccc(C(=O)N(C)C)cc1

IC50 [19]: 9.82 µM (active)
SMILES: CCOc1ccc(CCNC(=O)CN2C(=O)c3cccnc3Oc3ccc(C)cc32)cc1OCC
